Source: ChEMBL document CHEMBL5303765, “Data for DCP probe BAY-7081” (2023)

Legend:
[1] = target: Tyrosine-protein kinase ABL1 (Homo sapiens) (UniProt P00519); assay: ABL1 SGC Tm panel (DSF); conditions: for ΔTm: Compound concentration 10.0 uM
[2] = target: T1, Calcium/calmodulin-dependent protein kinase type IV (Homo sapiens) (UniProt Q16566); assay: CAMK4 SGC Tm panel (DSF); conditions: for ΔTm: Compound concentration 10.0 uM
T1 sequence (whole entry): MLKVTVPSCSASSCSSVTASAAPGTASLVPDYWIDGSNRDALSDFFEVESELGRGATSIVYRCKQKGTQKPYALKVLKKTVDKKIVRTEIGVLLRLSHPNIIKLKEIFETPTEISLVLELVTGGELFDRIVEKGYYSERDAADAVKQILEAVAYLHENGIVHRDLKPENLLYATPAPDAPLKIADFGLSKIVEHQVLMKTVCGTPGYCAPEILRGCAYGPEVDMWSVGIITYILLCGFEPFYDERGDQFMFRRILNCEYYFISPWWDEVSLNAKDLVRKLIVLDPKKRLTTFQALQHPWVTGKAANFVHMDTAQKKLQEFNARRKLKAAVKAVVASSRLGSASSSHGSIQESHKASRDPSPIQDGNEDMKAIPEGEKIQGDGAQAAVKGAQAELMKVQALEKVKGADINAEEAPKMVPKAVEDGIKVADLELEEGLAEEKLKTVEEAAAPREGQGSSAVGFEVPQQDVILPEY

[3] = target: T2, Peripheral plasma membrane protein CASK (Homo sapiens) (UniProt O14936); assay: CASK SGC Tm panel (DSF); conditions: for ΔTm: Compound concentration 10.0 uM
T2 sequence (whole entry): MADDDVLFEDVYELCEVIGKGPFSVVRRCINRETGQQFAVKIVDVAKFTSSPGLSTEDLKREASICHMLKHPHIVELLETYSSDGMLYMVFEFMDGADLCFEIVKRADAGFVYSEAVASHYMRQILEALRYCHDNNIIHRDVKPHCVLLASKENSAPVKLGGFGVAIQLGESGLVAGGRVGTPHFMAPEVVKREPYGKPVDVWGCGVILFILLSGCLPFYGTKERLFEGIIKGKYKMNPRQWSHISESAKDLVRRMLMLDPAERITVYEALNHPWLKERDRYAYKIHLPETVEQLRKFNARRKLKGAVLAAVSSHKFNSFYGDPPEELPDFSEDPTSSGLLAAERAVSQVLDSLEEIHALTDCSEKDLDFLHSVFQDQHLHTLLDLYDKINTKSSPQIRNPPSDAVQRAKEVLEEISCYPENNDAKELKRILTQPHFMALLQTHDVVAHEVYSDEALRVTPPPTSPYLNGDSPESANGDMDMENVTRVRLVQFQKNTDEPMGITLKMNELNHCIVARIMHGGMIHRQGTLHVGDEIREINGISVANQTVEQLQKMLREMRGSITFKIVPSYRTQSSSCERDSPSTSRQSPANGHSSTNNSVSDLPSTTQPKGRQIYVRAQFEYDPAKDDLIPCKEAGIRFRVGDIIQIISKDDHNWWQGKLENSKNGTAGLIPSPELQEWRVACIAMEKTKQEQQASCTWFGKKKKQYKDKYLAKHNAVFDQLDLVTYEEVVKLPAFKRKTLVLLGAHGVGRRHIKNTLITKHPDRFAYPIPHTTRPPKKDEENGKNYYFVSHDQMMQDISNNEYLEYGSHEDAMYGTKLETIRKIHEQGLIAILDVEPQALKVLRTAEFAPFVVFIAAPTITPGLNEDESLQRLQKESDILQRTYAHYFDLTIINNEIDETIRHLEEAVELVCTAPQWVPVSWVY

[4] = target: Casein kinase II subunit alpha' (Homo sapiens) (UniProt P19784); assay: CSNK2A2 SGC Tm panel (DSF); conditions: for ΔTm: Compound concentration 10.0 uM
Casein kinase II subunit alpha' (Homo sapiens), sequence (P19784 whole entry, looked up): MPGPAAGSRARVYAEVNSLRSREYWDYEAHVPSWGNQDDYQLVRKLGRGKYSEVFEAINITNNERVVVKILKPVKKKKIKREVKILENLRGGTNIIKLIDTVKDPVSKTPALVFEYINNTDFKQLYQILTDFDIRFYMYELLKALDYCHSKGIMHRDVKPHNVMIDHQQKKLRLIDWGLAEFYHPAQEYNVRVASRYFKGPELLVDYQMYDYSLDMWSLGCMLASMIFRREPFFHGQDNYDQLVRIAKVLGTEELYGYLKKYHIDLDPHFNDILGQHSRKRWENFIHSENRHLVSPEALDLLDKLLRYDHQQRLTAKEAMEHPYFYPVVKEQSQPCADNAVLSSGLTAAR

[5] = target: Ephrin type-A receptor 2 (Homo sapiens) (UniProt P29317); assay: EPHA2 SGC Tm panel (DSF); conditions: for ΔTm: Compound concentration 10.0 uM
Ephrin type-A receptor 2 (Homo sapiens), sequence (P29317 whole entry): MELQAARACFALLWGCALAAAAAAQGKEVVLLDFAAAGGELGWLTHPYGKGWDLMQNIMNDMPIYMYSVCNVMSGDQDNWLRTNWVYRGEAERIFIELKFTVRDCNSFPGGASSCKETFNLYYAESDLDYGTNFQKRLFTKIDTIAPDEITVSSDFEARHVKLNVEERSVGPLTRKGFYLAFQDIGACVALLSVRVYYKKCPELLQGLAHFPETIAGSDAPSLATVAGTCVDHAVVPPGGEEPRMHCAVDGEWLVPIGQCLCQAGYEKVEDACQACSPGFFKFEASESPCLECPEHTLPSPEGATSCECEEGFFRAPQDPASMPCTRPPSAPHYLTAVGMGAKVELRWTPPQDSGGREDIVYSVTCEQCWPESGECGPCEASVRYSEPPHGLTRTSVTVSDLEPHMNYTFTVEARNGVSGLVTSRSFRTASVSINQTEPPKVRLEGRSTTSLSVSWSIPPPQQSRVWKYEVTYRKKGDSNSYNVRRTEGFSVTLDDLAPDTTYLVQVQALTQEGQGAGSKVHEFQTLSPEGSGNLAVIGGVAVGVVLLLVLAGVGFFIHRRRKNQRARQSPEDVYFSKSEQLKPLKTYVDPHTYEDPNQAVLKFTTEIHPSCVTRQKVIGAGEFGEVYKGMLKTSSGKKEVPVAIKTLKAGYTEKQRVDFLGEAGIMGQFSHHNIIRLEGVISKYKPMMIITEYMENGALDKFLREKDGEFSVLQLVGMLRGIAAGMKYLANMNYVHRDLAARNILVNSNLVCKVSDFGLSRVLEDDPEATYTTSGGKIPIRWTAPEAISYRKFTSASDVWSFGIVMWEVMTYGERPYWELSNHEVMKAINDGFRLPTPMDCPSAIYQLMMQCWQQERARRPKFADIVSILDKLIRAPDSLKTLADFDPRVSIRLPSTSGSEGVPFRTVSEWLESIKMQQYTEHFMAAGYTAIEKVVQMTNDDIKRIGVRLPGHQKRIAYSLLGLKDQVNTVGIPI

[6] = target: Homeodomain-interacting protein kinase 2 (Homo sapiens) (UniProt Q9H2X6); assay: HIPK2 SGC Tm panel (DSF); conditions: for ΔTm: Compound concentration 10.0 uM
Homeodomain-interacting protein kinase 2 (Homo sapiens), sequence (Q9H2X6 whole entry, looked up): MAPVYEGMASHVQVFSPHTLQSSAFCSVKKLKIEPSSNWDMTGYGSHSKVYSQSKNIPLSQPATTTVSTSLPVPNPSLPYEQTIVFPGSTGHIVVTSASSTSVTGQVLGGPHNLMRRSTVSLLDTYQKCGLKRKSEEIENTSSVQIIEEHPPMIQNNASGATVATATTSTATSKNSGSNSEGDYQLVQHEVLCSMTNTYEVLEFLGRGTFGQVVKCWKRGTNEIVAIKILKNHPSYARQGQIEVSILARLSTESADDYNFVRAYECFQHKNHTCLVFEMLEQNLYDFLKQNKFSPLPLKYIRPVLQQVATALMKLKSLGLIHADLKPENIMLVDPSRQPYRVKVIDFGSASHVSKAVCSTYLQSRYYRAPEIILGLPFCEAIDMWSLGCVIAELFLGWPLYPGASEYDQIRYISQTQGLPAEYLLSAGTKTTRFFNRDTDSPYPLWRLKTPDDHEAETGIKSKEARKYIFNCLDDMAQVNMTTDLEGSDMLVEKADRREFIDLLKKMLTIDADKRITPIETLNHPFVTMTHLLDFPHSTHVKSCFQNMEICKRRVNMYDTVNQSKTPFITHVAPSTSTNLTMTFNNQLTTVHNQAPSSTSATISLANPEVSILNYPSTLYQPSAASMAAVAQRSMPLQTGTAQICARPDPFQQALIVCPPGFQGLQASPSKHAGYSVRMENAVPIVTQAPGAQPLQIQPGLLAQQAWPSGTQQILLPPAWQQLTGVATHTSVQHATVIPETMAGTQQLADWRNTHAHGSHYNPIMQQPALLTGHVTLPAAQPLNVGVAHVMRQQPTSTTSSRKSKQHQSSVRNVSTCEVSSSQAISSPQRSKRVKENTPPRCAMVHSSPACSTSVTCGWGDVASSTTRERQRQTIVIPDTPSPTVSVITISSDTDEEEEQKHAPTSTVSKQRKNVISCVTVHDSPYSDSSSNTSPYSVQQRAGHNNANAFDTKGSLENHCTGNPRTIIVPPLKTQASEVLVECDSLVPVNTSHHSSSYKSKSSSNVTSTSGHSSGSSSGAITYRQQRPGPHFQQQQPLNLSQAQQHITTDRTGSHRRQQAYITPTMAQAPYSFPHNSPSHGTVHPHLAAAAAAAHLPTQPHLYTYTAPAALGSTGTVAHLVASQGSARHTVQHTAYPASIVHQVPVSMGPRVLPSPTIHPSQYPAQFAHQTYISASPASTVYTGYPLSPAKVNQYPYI

[7] = target: Mitogen-activated protein kinase 1 (Homo sapiens) (UniProt P28482); assay: MAPK1 SGC Tm panel (DSF); conditions: for ΔTm: Compound concentration 10.0 uM
Mitogen-activated protein kinase 1 (Homo sapiens), sequence (P28482 whole entry): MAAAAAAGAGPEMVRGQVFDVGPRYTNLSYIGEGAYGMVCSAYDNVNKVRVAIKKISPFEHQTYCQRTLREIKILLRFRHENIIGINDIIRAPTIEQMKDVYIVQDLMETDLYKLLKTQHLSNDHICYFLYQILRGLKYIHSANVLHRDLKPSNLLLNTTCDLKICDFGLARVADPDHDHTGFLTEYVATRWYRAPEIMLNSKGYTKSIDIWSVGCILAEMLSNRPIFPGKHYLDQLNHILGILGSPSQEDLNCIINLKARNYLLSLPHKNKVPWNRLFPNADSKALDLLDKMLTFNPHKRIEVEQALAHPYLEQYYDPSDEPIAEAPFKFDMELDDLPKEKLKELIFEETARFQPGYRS

[8] = target: Serine/threonine-protein kinase 26 (Homo sapiens) (UniProt Q9P289); assay: MST4 SGC Tm panel (DSF); conditions: for ΔTm: Compound concentration 10.0 uM
Serine/threonine-protein kinase 26 (Homo sapiens), sequence (Q9P289 2-416 limits assumed): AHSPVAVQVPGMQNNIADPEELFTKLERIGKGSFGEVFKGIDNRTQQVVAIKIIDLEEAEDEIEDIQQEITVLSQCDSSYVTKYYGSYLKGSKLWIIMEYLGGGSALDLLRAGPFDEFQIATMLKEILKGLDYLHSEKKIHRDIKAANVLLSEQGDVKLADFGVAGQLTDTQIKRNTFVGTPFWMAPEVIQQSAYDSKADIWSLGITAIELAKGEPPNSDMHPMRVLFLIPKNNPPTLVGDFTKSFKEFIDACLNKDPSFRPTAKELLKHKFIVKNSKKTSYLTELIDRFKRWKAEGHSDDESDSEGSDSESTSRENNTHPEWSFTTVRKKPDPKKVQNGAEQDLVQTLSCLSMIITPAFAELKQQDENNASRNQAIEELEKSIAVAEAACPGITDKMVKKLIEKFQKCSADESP

[9] = target: Serine/threonine-protein kinase PAK 4 (Homo sapiens) (UniProt O96013); assay: PAK4 SGC Tm panel (DSF); conditions: for ΔTm: Compound concentration 10.0 uM
[10] = target: T3, Serine/threonine-protein kinase VRK1 (Homo sapiens) (UniProt Q99986); assay: VRK1 SGC Tm panel (DSF); conditions: for ΔTm: Compound concentration 10.0 uM
T3 sequence (whole entry): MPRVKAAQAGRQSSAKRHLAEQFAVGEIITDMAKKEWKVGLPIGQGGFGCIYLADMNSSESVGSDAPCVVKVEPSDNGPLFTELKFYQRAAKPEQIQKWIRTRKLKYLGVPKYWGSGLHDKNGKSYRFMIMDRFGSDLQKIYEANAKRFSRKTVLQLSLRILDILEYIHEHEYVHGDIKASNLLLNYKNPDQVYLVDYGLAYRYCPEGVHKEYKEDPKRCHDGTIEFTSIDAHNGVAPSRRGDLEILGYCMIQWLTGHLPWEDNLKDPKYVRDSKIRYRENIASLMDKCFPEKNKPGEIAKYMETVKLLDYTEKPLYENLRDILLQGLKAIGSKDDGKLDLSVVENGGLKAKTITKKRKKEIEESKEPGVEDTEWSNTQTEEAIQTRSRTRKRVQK

[11] = target: Serine/threonine-protein kinase WNK1 (Homo sapiens) (UniProt Q9H4A3); assay: WNK1 SGC Tm panel (DSF); conditions: for ΔTm: Compound concentration 10.0 uM
[12] = target: 5-hydroxytryptamine receptor 7 (Homo sapiens) (UniProt P34969); conditions: Compound concentration 10.0 uM
[13] = target: Beta-3 adrenergic receptor (Homo sapiens) (UniProt P13945); conditions: Compound concentration 10.0 uM
Beta-3 adrenergic receptor (Homo sapiens), sequence (P13945 whole entry, looked up): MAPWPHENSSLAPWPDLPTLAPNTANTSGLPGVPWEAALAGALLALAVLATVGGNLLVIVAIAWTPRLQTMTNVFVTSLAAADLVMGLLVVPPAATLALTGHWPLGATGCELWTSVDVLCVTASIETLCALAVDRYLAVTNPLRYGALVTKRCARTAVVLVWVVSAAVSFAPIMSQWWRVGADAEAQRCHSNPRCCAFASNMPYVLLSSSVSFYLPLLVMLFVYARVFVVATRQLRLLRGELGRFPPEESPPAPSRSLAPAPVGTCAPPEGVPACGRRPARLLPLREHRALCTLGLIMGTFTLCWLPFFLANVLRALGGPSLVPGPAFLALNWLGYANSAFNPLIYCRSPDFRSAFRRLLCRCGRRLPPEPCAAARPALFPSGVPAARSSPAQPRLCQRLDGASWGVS

[14] = target: Alpha-1D adrenergic receptor (Homo sapiens) (UniProt P25100); conditions: Compound concentration 10.0 uM

Tyrosine-protein kinase ABL1 (Homo sapiens), sequence (P00519 whole entry): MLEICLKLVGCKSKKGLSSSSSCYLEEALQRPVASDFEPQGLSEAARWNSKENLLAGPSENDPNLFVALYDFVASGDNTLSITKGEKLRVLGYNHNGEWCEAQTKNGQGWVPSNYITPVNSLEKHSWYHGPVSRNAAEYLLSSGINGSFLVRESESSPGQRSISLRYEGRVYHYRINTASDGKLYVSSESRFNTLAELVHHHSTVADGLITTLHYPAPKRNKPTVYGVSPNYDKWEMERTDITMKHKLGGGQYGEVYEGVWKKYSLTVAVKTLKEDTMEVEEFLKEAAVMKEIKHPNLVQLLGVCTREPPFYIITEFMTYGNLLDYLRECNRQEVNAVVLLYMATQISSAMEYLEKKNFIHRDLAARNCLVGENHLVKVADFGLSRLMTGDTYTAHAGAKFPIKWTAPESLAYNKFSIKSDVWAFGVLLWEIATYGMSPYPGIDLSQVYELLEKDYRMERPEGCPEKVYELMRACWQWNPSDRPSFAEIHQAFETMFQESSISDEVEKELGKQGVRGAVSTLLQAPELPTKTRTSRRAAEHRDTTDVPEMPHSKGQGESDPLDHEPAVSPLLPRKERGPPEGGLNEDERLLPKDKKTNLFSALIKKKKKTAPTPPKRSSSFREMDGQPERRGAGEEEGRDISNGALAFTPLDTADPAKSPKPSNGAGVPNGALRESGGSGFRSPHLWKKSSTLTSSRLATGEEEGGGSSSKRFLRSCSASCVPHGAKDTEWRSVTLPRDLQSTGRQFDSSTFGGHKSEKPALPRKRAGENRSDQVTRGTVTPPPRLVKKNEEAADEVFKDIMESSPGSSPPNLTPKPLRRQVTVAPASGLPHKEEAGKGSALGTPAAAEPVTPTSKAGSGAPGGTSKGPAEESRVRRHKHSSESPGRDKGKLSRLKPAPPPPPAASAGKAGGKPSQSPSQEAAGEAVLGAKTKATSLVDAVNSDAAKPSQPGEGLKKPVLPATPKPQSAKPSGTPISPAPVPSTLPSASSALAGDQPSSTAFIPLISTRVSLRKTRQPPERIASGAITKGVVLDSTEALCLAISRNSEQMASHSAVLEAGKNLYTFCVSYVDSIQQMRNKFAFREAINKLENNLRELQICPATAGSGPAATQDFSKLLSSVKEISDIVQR

| Compound | delta Tm Staurosporine positive control [1] | ΔTm [1] | delta Tm Staurosporine positive control [2] | ΔTm [2] | delta Tm Staurosporine positive control [3] | ΔTm [3] | delta Tm Staurosporine positive control [4] | ΔTm [4] | delta Tm Staurosporine positive control [5] | ΔTm [5] | delta Tm Staurosporine positive control [6] | ΔTm [6] | delta Tm Staurosporine positive control [7] | ΔTm [7] | delta Tm Staurosporine positive control [8] | ΔTm [8] | delta Tm Staurosporine positive control [9] | ΔTm [9] | delta Tm Staurosporine positive control [10] | ΔTm [10] | also measured |
| --- | --- | --- | --- | --- | --- | --- | --- | --- | --- | --- | --- | --- | --- | --- | --- | --- | --- | --- | --- | --- | --- |
| CCC[C@H]1CNCc2c1[nH]c(=O)c(C#N)c2N1CCC2(CC1)CC2 | 8.44 | 0.111 | 8.45 | -0.566 | 4.28 | -0.242 | 4.21 | -0.244 | 7.41 | -0.621 | 4.23 | -0.31 | 3.56 | -0.182 | 6.5 | -1.58 | 15.1 | 0.134 | 2.35 | -0.355 | delta Tm Staurosporine positive control [11]: 2.2; ΔTm [11]: -0.456; inhibition [12]: 16.3%; inhibition [13]: 3.76%; inhibition [14]: 0.14% |
| CCC[C@@H]1CNCc2c1[nH]c(=O)c(C#N)c2N1CCC2(CC1)CC2 | 8.44 | 0.0781 | 8.45 | -1.12 | 4.28 | -0.0745 | 4.21 | -0.242 | 7.41 | -0.623 | 4.23 | -0.297 | 3.56 | -0.19 | 6.5 | -1.81 | 15.1 | 0.121 | 2.35 | -0.315 | delta Tm Staurosporine positive control [11]: 2.2; ΔTm [11]: -0.301; inhibition [12]: -2.3%; inhibition [13]: -3.17%; inhibition [14]: -2.05% |
